Measured values taken from ChEMBL document CHEMBL1153505, “Free and bound state structures of 6-O-methyl homoerythromycins and epitope mapping of their interactions with ribosomes” (Bioorg Med Chem, 2009).

These molecules were tested against Bacterial 70S ribosome (assay: Inhibition of Escherichia coli ribosome).
Type: subcellular
For CC[C@H]1OC(=O)[C@H](C)[C@@H](O[C@H]2C[C@@](C)(OC)[C@@H](O)[C@H](C)O2)[C@H](C)[C@@H](O[C@@H]2O[C@H](C)C[C@H](N(C)C)[C@H]2O)[C@](C)(OC)C[C@@H](C)C(=O)N[C@H](C)[C@@H](O)[C@]1(C)O, the IC50 was 1300 nM.
For CC[C@H]1OC(=O)[C@H](C)[C@@H](O)[C@H](C)[C@@H](O[C@@H]2O[C@H](C)C[C@H](N(C)C)[C@H]2O)[C@](C)(OC)C[C@@H](C)NC(=O)[C@H](C)[C@@H](O)[C@]1(C)O, the IC50 was over 100000 nM.
CC[C@H]1OC(=O)[C@H](C)[C@@H](O[C@H]2C[C@@](C)(OC)[C@@H](O)[C@H](C)O2)[C@H](C)[C@@H](O[C@@H]2O[C@H](C)C[C@H](N(C)C)[C@H]2O)[C@](C)(O)C[C@@H](C)CN(C)[C@H](C)[C@@H](O)[C@]1(C)O [AZITHROMYCIN] showed an IC50 of 300 nM.
Work on CC[C@H]1OC(=O)[C@H](C)[C@@H](O[C@H]2C[C@@](C)(OC)[C@@H](O)[C@H](C)O2)[C@H](C)[C@@H](O[C@@H]2O[C@H](C)C[C@H](N(C)C)[C@H]2O)[C@](C)(OC)C[C@@H](C)NC(=O)[C@H](C)[C@@H](O)[C@]1(C)O yielded an IC50 of 100 nM.
Work on CC[C@H]1OC(=O)[C@H](C)[C@@H](O)[C@H](C)[C@@H](O[C@@H]2O[C@H](C)C[C@H](N(C)C)[C@H]2O)[C@](C)(OC)C[C@@H](C)C(=O)N[C@H](C)[C@@H](O)[C@]1(C)O yielded an IC50 of over 100000 nM.
